Reference: ChEMBL document CHEMBL3885881, “DrugMatrix”

Organism: Rattus norvegicus
Experiment: DrugMatrix - Regimen: Daily Repeat
Format: toxicity, organism-based, Sprague-Dawley
Parameters: regimen Daily Repeat, gender Male, age 6-8 weeks
Conditions: in vivo, po, 80 mg/kg, route oral GAVAGE, dose level High, vehicle .5 % CMC; for ABSOLUTE BASOPHIL / ABSOLUTE EOSINOPHIL / ABSOLUTE LYMPHOCYTE / ABSOLUTE MONOCYTE / ABSOLUTE SEGMENTED NEUTROPHIL / BASOPHIL / EOSINOPHIL / ERYTHROCYTE COUNT / HEMATOCRIT / HEMOGLOBIN / LEUKOCYTE COUNT / LYMPHOCYTE / MEAN CORPUSCULAR HEMOGLOBIN / MEAN CORPUSCULAR HEMOGLOBIN CONCENTRATION / MEAN CORPUSCULAR VOLUME / MONOCYTE / NEUTROPHIL / PLATELET COUNT: tissue Blood; for ALANINE AMINOTRANSFERASE / ALBUMIN / ALKALINE PHOSPHATASE / ASPARTATE AMINOTRANSFERASE / BLOOD UREA NITROGEN / CHLORIDE / CHOLESTEROL / CREATINE PHOSPHOKINASE / CREATININE / GLUCOSE / LACTATE DEHYDROGENASE / LIPASE / PHOSPHORUS / POTASSIUM / SODIUM / TOTAL BILIRUBIN / TOTAL PROTEIN / URIC ACID: tissue Plasma

O=c1cc(-c2ccccc2)oc2c1ccc1ccccc12 [ALPHA-NAPHTHOFLAVONE]
ABSOLUTE BASOPHIL (120 h, time 5 day): 170 cells/µL | ABSOLUTE EOSINOPHIL (120 h, time 5 day): 42.5 cells/µL | ABSOLUTE LYMPHOCYTE (120 h, time 5 day): 11500 cells/µL | ABSOLUTE MONOCYTE (120 h, time 5 day): 230 cells/µL | ABSOLUTE SEGMENTED NEUTROPHIL (120 h, time 5 day): 1790 cells/µL | BASOPHIL (120 h, time 5 day): 1.35% | EOSINOPHIL (120 h, time 5 day): 0.35% | ERYTHROCYTE COUNT (120 h, time 5 day): 7.43 x10E6/uL | HEMATOCRIT (120 h, time 5 day): 46.52% | HEMOGLOBIN (120 h, time 5 day): 15.82 G/DL | LEUKOCYTE COUNT (120 h, time 5 day): 13.81 x10E3/uL | LYMPHOCYTE (120 h, time 5 day): 82.92% | MEAN CORPUSCULAR HEMOGLOBIN (120 h, time 5 day): 21.35 pg | MEAN CORPUSCULAR HEMOGLOBIN CONCENTRATION (120 h, time 5 day): 34.08 G/DL | MEAN CORPUSCULAR VOLUME (120 h, time 5 day): 62.67 fL | MONOCYTE (120 h, time 5 day): 1.57% | NEUTROPHIL (120 h, time 5 day): 13.3% | PLATELET COUNT (120 h, time 5 day): 1518.75 x10E3/uL | ALANINE AMINOTRANSFERASE (120 h, time 5 day): 31.25 u/L | ALBUMIN (120 h, time 5 day): 3.65 G/DL | ALKALINE PHOSPHATASE (120 h, time 5 day): 212.25 u/L | ASPARTATE AMINOTRANSFERASE (120 h, time 5 day): 78.25 u/L | BLOOD UREA NITROGEN (120 h, time 5 day): 9.25 mg/dL | CHLORIDE (120 h, time 5 day): 108 MEQ/L | CHOLESTEROL (120 h, time 5 day): 61 mg/dL | CREATINE PHOSPHOKINASE (120 h, time 5 day): 190.25 u/L | CREATININE (120 h, time 5 day): 0.53 mg/dL | GLUCOSE (120 h, time 5 day): 111 mg/dL | LACTATE DEHYDROGENASE (120 h, time 5 day): 112.75 u/L | LIPASE (120 h, time 5 day): 16.75 u/L | PHOSPHORUS (120 h, time 5 day): 12.3 mg/dL | POTASSIUM (120 h, time 5 day): 6.75 MEQ/L | SODIUM (120 h, time 5 day): 151.5 MEQ/L | TOTAL BILIRUBIN (120 h, time 5 day): 0.23 mg/dL | TOTAL PROTEIN (120 h, time 5 day): 6.07 G/DL | URIC ACID (120 h, time 5 day): 0.72 mg/dL | ABSOLUTE BASOPHIL (2184 h, time 91 day): 340 cells/µL | ABSOLUTE EOSINOPHIL (2184 h, time 91 day): 100 cells/µL | ABSOLUTE LYMPHOCYTE (2184 h, time 91 day): 10400 cells/µL | ABSOLUTE MONOCYTE (2184 h, time 91 day): 180 cells/µL | ABSOLUTE SEGMENTED NEUTROPHIL (2184 h, time 91 day): 1510 cells/µL | BASOPHIL (2184 h, time 91 day): 2.59% | EOSINOPHIL (2184 h, time 91 day): 0.83% | ERYTHROCYTE COUNT (2184 h, time 91 day): 9.33 x10E6/uL | HEMATOCRIT (2184 h, time 91 day): 49.58% | HEMOGLOBIN (2184 h, time 91 day): 16.44 G/DL | LEUKOCYTE COUNT (2184 h, time 91 day): 12.6 x10E3/uL | LYMPHOCYTE (2184 h, time 91 day): 82.74% | MEAN CORPUSCULAR HEMOGLOBIN (2184 h, time 91 day): 17.63 pg | MEAN CORPUSCULAR HEMOGLOBIN CONCENTRATION (2184 h, time 91 day): 33.15 G/DL | MEAN CORPUSCULAR VOLUME (2184 h, time 91 day): 53.18 fL | MONOCYTE (2184 h, time 91 day): 1.38% | NEUTROPHIL (2184 h, time 91 day): 12.04% | PLATELET COUNT (2184 h, time 91 day): 1261.8 x10E3/uL | ALANINE AMINOTRANSFERASE (2184 h, time 91 day): 28.3 u/L | ALBUMIN (2184 h, time 91 day): 3.77 G/DL | ALKALINE PHOSPHATASE (2184 h, time 91 day): 94.2 u/L | ASPARTATE AMINOTRANSFERASE (2184 h, time 91 day): 64.7 u/L | BLOOD UREA NITROGEN (2184 h, time 91 day): 15.9 mg/dL | CHLORIDE (2184 h, time 91 day): 103.2 MEQ/L | CHOLESTEROL (2184 h, time 91 day): 70.3 mg/dL | CREATINE PHOSPHOKINASE (2184 h, time 91 day): 80.9 u/L | CREATININE (2184 h, time 91 day): 0.54 mg/dL | GLUCOSE (2184 h, time 91 day): 152 mg/dL | LACTATE DEHYDROGENASE (2184 h, time 91 day): 46.3 u/L | LIPASE (2184 h, time 91 day): 18.7 u/L | PHOSPHORUS (2184 h, time 91 day): 8.35 mg/dL | POTASSIUM (2184 h, time 91 day): 6.21 MEQ/L | SODIUM (2184 h, time 91 day): 149.8 MEQ/L | TOTAL BILIRUBIN (2184 h, time 91 day): 0.21 mg/dL | TOTAL PROTEIN (2184 h, time 91 day): 7.38 G/DL | URIC ACID (2184 h, time 91 day): 0.89 mg/dL | ABSOLUTE BASOPHIL ([…], time 28 day): 200 cells/µL | ABSOLUTE EOSINOPHIL ([…], time 28 day): 76 cells/µL | ABSOLUTE LYMPHOCYTE ([…], time 28 day): 13000 cells/µL | ABSOLUTE MONOCYTE ([…], time 28 day): 200 cells/µL | ABSOLUTE SEGMENTED NEUTROPHIL ([…], time 28 day): 1710 cells/µL | BASOPHIL ([…], time 28 day): 1.28% | EOSINOPHIL ([…], time 28 day): 0.48% | ERYTHROCYTE COUNT ([…], time 28 day): 8.57 x10E6/uL | HEMATOCRIT ([…], time 28 day): 47.9% | HEMOGLOBIN ([…], time 28 day): 15.96 G/DL | LEUKOCYTE COUNT ([…], time 28 day): 15.29 x10E3/uL | LYMPHOCYTE ([…], time 28 day): 85.76% | MEAN CORPUSCULAR HEMOGLOBIN ([…], time 28 day): 18.62 pg | MEAN CORPUSCULAR HEMOGLOBIN CONCENTRATION ([…], time 28 day): 33.3 G/DL | MEAN CORPUSCULAR VOLUME ([…], time 28 day): 55.92 fL | MONOCYTE ([…], time 28 day): 1.36% | NEUTROPHIL ([…], time 28 day): 10.8% | PLATELET COUNT ([…], time 28 day): 1456 x10E3/uL | ALANINE AMINOTRANSFERASE ([…], time 28 day): 26.4 u/L | ALBUMIN ([…], time 28 day): 3.66 G/DL | ALKALINE PHOSPHATASE ([…], time 28 day): 157.4 u/L | ASPARTATE AMINOTRANSFERASE ([…], time 28 day): 65.6 u/L | BLOOD UREA NITROGEN ([…], time 28 day): 13.6 mg/dL | CHLORIDE ([…], time 28 day): 104 MEQ/L | CHOLESTEROL ([…], time 28 day): 49.8 mg/dL | CREATINE PHOSPHOKINASE ([…], time 28 day): 102 u/L | CREATININE ([…], time 28 day): 0.46 mg/dL | GLUCOSE ([…], time 28 day): 153.8 mg/dL | LACTATE DEHYDROGENASE ([…], time 28 day): 60 u/L | LIPASE ([…], time 28 day): 19 u/L | PHOSPHORUS ([…], time 28 day): 9.14 mg/dL | POTASSIUM ([…], time 28 day): 5.7 MEQ/L | SODIUM ([…], time 28 day): 151 MEQ/L | TOTAL BILIRUBIN ([…], time 28 day): 0.22 mg/dL | TOTAL PROTEIN ([…], time 28 day): 6.76 G/DL | URIC ACID ([…], time 28 day): 0.26 mg/dL
